Source: patent US20230181524A1, “PHARMACEUTICAL COMBINATION AND USE THEREOF” (NATURAL MEDICINE INSTITUTE OF ZHEJIANG YANGSHENGTANG CO., …, priority 2020, published 2023)
Values joined by “and” are separate entries in the source; they are usually repeats but may differ in a detail not shown here. Equal values may be shown once. d = 2'-deoxy (DNA)

How the values were obtained:
[1] = test system: HOS human osteosarcoma cells; test: Cell counts of drug combination administration (Trypan Blue), cell viability
Method: (§1) (1) Cells were plated in a 10 cm culture plate to grow a density of about 90%. The medium was removed, and the adherent cells were washed once with a PBS buffer. 1 mL of trypsin was added, and immediately discarded after mixing well. The cells were placed in the incubator and digested for about 5 min, and then about 10 ml of fresh medium was added. 10 μL was taken for counting.
(§2) (2) 10 μL of the well-mixed cells were taken and mixed into 10 μL of Trypan Blue solution, and counted.
(§3) (3) After counting, the cells were diluted to 1×10^5 cells/ml. The diluted cells were mixed well, and plated into a 24-well plate with 500 μL per well, i.e., about 50,000 cells per well.
(§4) (4) The cells plated in the 24-well plate were cultured for about 24h, and then drugs were added. […]
(§5) (5) After 24h of dosing, the medium was discarded. About 150 μL of trypsin was added and then discarded. The cells were digested for 5 min;
(§6) (6) After digestion, equivalent amounts of PBS were added into each well and mixed uniformly. Then, 10 μL/well of Trypan Blue solution was added and mixed uniformly. 10 μL of the well-mixed solution was taken and counted. In accordance with “Cell viability=Cell Count of Test Group/Cell Count of Control Group×100%”, the cell viability of various groups was calculated.
(§7) The coefficient of drug in interaction (CDI) was used to evaluate the nature of the interaction between the two drugs. The test groups were divided into the control group, the group of A drug, the group of B drug and the group of AB in combination, and used for detecting the cell viability in A, B and AB groups, respectively.

HEK293 cells = test: Cell viability compared with HEK293 cells (specificity); type: cell-based; conditions: in combination with ascorbic acid
Method: HEK293 cells, HOS human osteosarcoma cells, and 143B human osteosarcoma cells were subcultured in an incubator at 37° C., 5% CO2 using a RPMI-1640 medium containing 10% fetal bovine serum (FBS).
(§8) 10 μL was taken for counting.
(5) After 24h of dosing, the medium was discarded. […] The cells were digested for 5 min;

[2] = test system: 143B human osteosarcoma cells; test: Cell counts of drug combination administration (Trypan Blue), cell viability
Method: as §1, §2, §3, §4, §5, §6, §7

[3] = test system: MC38 human colon cancer cells; test: Cell viability, method of Example 1
Method: as §1, §2, §3
(§9) (4) The cells plated in the 24-well plate were cultured for about 24h, and then drugs were added. Various test groups comprise 5 groups as follows: the single-drug group of PKF118-310 (with a concentration of 0.1 μM), the group of ascorbic acid (with a concentration of 0.5 mM), the group of PKF118-310 (with a concentration of 0.1 μM) in combination with ascorbic acid (with a concentration of 0.5 mM); the control group that is a cell group to which only solvent DMSO is added; and the blank group that is a group to which no cell is added and only solvent (DMSO) is added.
as §5, §6
(§10) The inhibitory effect of PKF118-310 on the MC38 human colon cancer cells and the HCT116 human […] cancer cells was detected in accordance with the corresponding method of Example 1.

[4] = test system: MC38 human colon cancer cells; test: Cell viability of single-drug administration, concentration gradient (CCK-8); type: cell-based; conditions: concentrations ranging from 0 to 100 μM
Method: as §8
(§11) The diluted cells were plated into a 96-well plate with 100 μL per well, i.e., about 10,000 cells per well. […]
(§12) (4) After 24h of dosing, 10 μL of CCK-8 solution was added. The cells were incubated in the incubator for 1-2 hours, and then measured at 490 nm using a microplate reader for the absorbance (OD value) of each well. The results were recorded. The relative cell viability was calculated as follows:
(§13) The cell viability of the control group obtained according the equation is 100%.

[5] = test system: HCT116 human colon cancer cells; test: as above; type: cell-based; conditions: concentrations ranging from 0 to 100 μM
Method: as §8, §11, §12, §13

[6] = test system: SKOV3 human ovarian cancer cells; test: cells; conditions: Homo sapiens, SK-OV-3, read-out: cell viability
Method: as §1, §2, §3, §9, §5, §6
(§14) The inhibitory effect of PKF118-310 on the SKOV3 human ovarian cancer cells and the 3AO human ovarian cancer cells was detected in accordance with the corresponding method of Example 1.

[7] = test system: 3AO human ovarian cancer cells; test: cells; conditions: Homo sapiens, 3AO, read-out: cell viability
Method: as §1, §2, §3, §9, §5, §6, §14

[8] = test system: 143B human osteosarcoma cells; test: siRNA against β-catenin transfection with or without sodium ascorbate, cell viability by cell count; type: cell-based; conditions: 143B cells
From the text: SiRNA is designed against the nucleotide sequence of β-catenin, and the siRNA codes are 484, 1202, and 1387, respectively. The sequences of sense strand and anti-sense strand of 484 are shown in SEQ ID NO. 1-2, respectively, and the sequences of sense strand and anti-sense strand of 1202 are shown in SEQ ID NO. 3-4, respectively, and the sequences of sense strand and anti-sense strand of 1387 are shown in SEQ ID NO. 5-6, respectively, wherein there are 2 T-bases at the 3′ end of each strand. 143B human osteosarcoma cells were subcultured at 37° C., 5% CO2 in an incubator with a RPMI-1640 medium containing 10% fetal bovine serum. The particular steps were as follows:
as §8
Then, the medium was discarded and replaced with 500 μL of serum-free medium.
(5) […] of siRNA was added into 50 μL of serum-free medium and mixed well.
(6) 1 μL of Lipofectamin 2000 transfection reagent was added into 50 μL of serum-free medium, mixed well, and stood at room temperature for 5 min.
(7) The siRNA diluted in Step (5) and the Lipofectamin 2000 reagent obtained in Step (6) were mixed, shaken well, and stood at room temperature for 20 min.
(8) 100 μL of the mixture obtained in Step (7) was added into the wells of the cell culture plate, cultured at 37° C. for 4h, and then the medium was replaced with normal medium. And an ascorbic acid solution with a concentration of 0.5 mM into the ascorbic acid group and the combination group.
(9) After 24h of dosing, the medium was discarded. […] The cells were digested for 5 min;

DB lymphoma cells = conditions: 2 mM ascorbic acid alone
Method: as §1, §2, §3, §9, §5, §6
For example, as for the DB lymphoma cells, the control group involves adding the solvent DMSO alone, the Vc group involves adding 2 mM of ascorbic acid, the low-dose PKF group involves adding 2 μM of PKF118-310, the low-dose PKF+Vc group involves adding 2 μM of PKF118-310 and 2 mM of ascorbic acid, the high-dose PKF group involves adding 5 μM of PKF118-310, and the high-dose PKF+the Vc group involves adding 5 μM of PKF118-310 and 2 mM of ascorbic acid.

[9] = test system: HCT116 human colon cancer cells; test: cells; conditions: Homo sapiens, HCT-116, read-out: cell viability
Method: as §1, §2, §3, §9, §5, §6, §10

[10] = alone; PKF118-310 0.7 mg/kg s.c. or ascorbate 1 g/kg i.v. every 3 days
Method: The day of the first injection was taken as Day 1, and then the body weight and the tumor size of the nude mice were examined and recorded: the tumor volume (mm^3)=Length (L)×Width (W)^2/2. The tumor was subject to Luciferin fluorescence imaging. That is, a 1 mg/mL of aqueous potassium D-fluorescein solution was prepared, and each mouse was intraperitoneally injected with 100 μL. After 10 min of injection, the mice were subject to Luciferin fluorescence imaging with a small animal live imaging instrument.

[11] = 10 μM in combination with 0.5 mM ascorbic acid
[12] = 20 μM in combination with 0.5 mM sodium ascorbate
[13] = Homo sapiens, MC-38, read-out: cell viability
[14] = Homo sapiens, 143B, read-out: cell viability
[15] = administration of the siRNA alone
[16] = siRNA in combination with 0.5 mM sodium ascorbate

Cc1nc2c(=O)n(C)c(=O)nc-2n(C)n1 [3-Methyltoxoflavin] gave a cell viability ([1]; 10 μM and 0.5 mM ascorbic acid) of 54%, a CDI value [1, 11] of 0.86 and a cell viability ([1]; single drug 10 μM) of 63%.
For OC1CCC(Oc2cccc3cnc(Nc4ccc5nc[nH]c5c4)nc23)CC1 (centres unmarked) [NCB-0846], the “specificity of inhibition of tumor cell viability as compared with the HEK293 cells” value (HEK293 cells) was “can specifically inhibit the cell viability of the 143B cells and the HOS cells”, the CDI value [1, 12] was 0.16 and the CDI value ([2]; 143B cells, 20 μM in combination with 0.5 mM sodium ascorbate) was 0.13.
In the case of C[C@H]1[C@H]2N(C(=O)CN(C)N2C(=O)NCc2ccccc2)[C@@H](Cc2ccc(OP(=O)(O)O)cc2)C(=O)N1Cc1cccc2cccnc12 [PRI-724], the CDI value [1, 12] is reported as 0.41, the cell viability [1, 12] is reported as 74% and the cell viability ([1]; single-drug 20 μM) is reported as 102%.
For Cn1nc(-c2ccc(C(F)(F)F)cc2)nc2c(=O)n(C)c(=O)nc1-2 [Walrycin B], the cell viability ([1]; 10 μM and 0.5 mM ascorbic acid) was 30%, the CDI value [1, 11] was 0.73 and the cell viability ([1]; single drug 10 μM) was 42%.
CCC(C)c1nc2c(=O)n(C)c(=O)nc-2n(C(C)C)n1 (centres unmarked) [compound C-1] gave a viability at 5 µM [3, 13] of 90%, a CDI value ([3]; MC38 cells, 5 μM in combination with 0.5 mM ascorbic acid) of 0.68 and a cell viability ([3]; human, 24 h, 5 μM) of 59%. The CDI value ([2]; 143B cells, 5 μM in combination with 0.5 mM ascorbic acid) was 0.40, the viability at 5 µM [2, 14] was 50% and the cell viability ([2]; human, 24 h, 5 μM) was 19%.
For CC(C)c1nc2c(=O)n(C)c(=O)nc-2n(C)n1 [compound C-2], the viability at 1 µM [3, 13] was 83%, the CDI value ([3]; MC38 cells, 1 μM in combination with 0.5 mM ascorbic acid) was 0.07 and the cell viability ([3]; human, 24 h, 1 μM) was 6%. It also gave a CDI value ([2]; 143B cells, 1 μM in combination with 0.5 mM ascorbic acid) of 0.37, a viability at 1 µM [2, 14] of 83% and a cell viability ([2]; human, 24 h, 1 μM) of 28%.
In the case of O=C1[O][Pt]2([NH][C@@H]3CCCC[C@H]3[NH]2)[O]C1=O [oxaliplatin], the “effect on the cell viability” value [4] is reported as “does not have significant effect on the cell viability” and the “effect on the cell viability” value [5] is reported as “does not have significant effect on the cell viability”.
Work on O=C1O[C@H]([C@@H](O)CO)C([O-])=C1O.[Na+] [sodium ascorbate] yielded a viability at 500 µM [6] of 97%, a viability at 500 µM [7] of 99% and a viability at 500 µM ([8]; Homo sapiens, 0.5 mM sodium ascorbate alone (siRNA experiment)) of 63%. The cell viability (DB lymphoma cells) was 91%, the viability at 500 µM ([3]; Homo sapiens, MC-38, read-out: cell viability, MC38 cells, 0.5 mM sodium ascorbate (ascorbic acid) alone) was 83% and the cell viability ([3]; MC38 cells, 0.5 mM sodium ascorbate (ascorbic acid) alone) was 96% and 98%. For the same compound, the cell viability ([1]; 0.5 mM sodium ascorbate (ascorbic acid) alone) was 91% and 96% and 76%, the cell viability ([1]; 0.5 mM sodium ascorbate (ascorbic acid) alone, listed as ascorbic acid) was 98% and 99% and the cell viability ([2]; 143B cells, 0.5 mM sodium ascorbate (ascorbic acid) alone) was 54% and 80%. For the same compound, the cell viability ([2]; 143B cells, 0.5 mM sodium ascorbate (ascorbic acid) alone, listed as ascorbic acid) was 96% and 92%, the viability at 500 µM [9] was 98% and the “effect on the body weight of mice” value [10] was “no effect on the body weight of mice”.
Work on “siRNA 484: siRNA against β-catenin, sense and anti-sense strands SEQ ID NO. 1-2, 2 T-bases at the 3′ end of each strand (sense CCUUCACUCAAGAACAAGU; antisense ACUUGUUCUUGAGUGAAGG; RNA, 3' dTdT, backbone not given here)” yielded a cell viability [8, 15] of 90%, a CDI value [8, 16] of 0.46 and a cell viability [8, 16] of 26%.
“siRNA 1202: siRNA against β-catenin, sense and anti-sense strands SEQ ID NO. 3-4, 2 T-bases at the 3′ end of each strand (sense GCUCAUCAUACUGGCUAGU; antisense ACUAGCCAGUAUGAUGAGC; RNA, 3' dTdT, backbone not given here)” gave a cell viability [8, 15] of 91%, a CDI value [8, 16] of 0.30 and a cell viability [8, 16] of 17%.
With “siRNA 1387: siRNA against β-catenin, sense and anti-sense strands SEQ ID NO. 5-6, 2 T-bases at the 3′ end of each strand (sense GUCAACGUCUUGUUCAGAA; antisense UUCUGAACAAGACGUUGAC; RNA, 3' dTdT, backbone not given here)” the cell viability [8, 15] was 80%, the CDI value [8, 16] was 0.40 and the cell viability [8, 16] was 20%.
